Test results: patent US7888363B2, “Viral polymerase inhibitors” (Boehringer Ingelheim International GmbH, priority 2003, dated 2011)
Blank lines part the entries; values can stand above or below the molecule they belong to.

Target: hepatitis C virus RNA dependant polymerase (NS5B) (Hepatitis C virus genotype 1b, UniProt P26663)
Experiment: Inhibition of NS5B RNA dependent RNA polymerase activity
Type: biochemical
Method: A suitable assay is described in the examples.
Inhibition of NS5B RNA Dependent RNA Polymerase Activity
The compounds of the invention were tested for inhibitory activity against the hepatitis C virus RNA dependant polymerase (NS5B), according to protocol described in WO 03/010141

hepatitis C virus RNA dependant polymerase (NS5B), sequence (P26663 2420-3010): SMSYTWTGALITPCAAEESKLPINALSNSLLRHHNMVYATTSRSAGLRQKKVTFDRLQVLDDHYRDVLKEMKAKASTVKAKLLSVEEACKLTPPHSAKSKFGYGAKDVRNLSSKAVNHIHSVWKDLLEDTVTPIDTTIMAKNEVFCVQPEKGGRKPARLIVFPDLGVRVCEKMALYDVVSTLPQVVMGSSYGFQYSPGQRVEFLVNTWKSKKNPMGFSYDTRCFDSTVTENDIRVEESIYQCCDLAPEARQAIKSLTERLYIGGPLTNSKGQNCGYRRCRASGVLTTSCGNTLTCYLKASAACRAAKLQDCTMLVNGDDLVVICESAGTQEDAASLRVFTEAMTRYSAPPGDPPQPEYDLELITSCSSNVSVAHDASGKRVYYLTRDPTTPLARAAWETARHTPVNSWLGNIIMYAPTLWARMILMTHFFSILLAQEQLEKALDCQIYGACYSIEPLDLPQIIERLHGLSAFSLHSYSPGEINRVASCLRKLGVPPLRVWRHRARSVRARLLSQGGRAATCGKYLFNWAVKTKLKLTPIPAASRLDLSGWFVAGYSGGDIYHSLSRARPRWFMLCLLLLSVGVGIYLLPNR

IC50 (Table 1, HCV NS5B polymerase): < 200 nM
Structure (SMILES): CN(C)CCN(C)C(=O)Cn1c(-c2ccoc2)c(C2CCCCC2)c2ccc(C(=O)O)cc21 [Example 1112]

IC50 (Table 1, HCV NS5B polymerase): < 200 nM
Structure (SMILES): O=C(O)/C=C/c1ccc(NC(=O)[C@@]2(NC(=O)Cn3c(-c4ccoc4)c(C4CCCCC4)c4ccc(C(=O)O)cc43)CCNC2)cc1 [Example 1079]

IC50 (Table 1, HCV NS5B polymerase): < 200 nM
Structure (SMILES): CC(C)(NC(=O)Cn1c(-c2ccoc2)c(C2CCCCC2)c2ccc(C(=O)O)cc21)C(=O)Nc1ccc(/C=C/C(=O)O)cc1 [Example 1051]

IC50 (Table 7, class ranges): < 200 nM
Structure (SMILES): Cc1c(C(=O)O)ccc2c(C3CCCCC3)c(-c3ccoc3)n(CC(=O)N3CCC(N4CCCC4)CC3)c12 [Example 7004]

IC50 (Table 1, HCV NS5B polymerase): < 200 nM
Structure (SMILES): O=C(O)CN1CCN(C(=O)Cn2c(-c3ccoc3)c(C3CCCCC3)c3ccc(C(=O)O)cc32)CC1 [Example 1074]

IC50 (Table 4, class ranges): < 200 nM
Structure (SMILES): CNc1nc(C2(NC(=O)c3ccc4c(C5CCCCC5)c(-c5ccoc5)n(CC(=O)N5CCC(N6CCCC6)CC5)c4c3)CCC2)cs1 [Example 4103]

IC50 (Table 4, class ranges): 200 to 1000 nM
Structure (SMILES): CN(C)C(=O)Cn1c(-c2ccoc2)c(C2CCCCC2)c2ccc(C(=O)NCCc3ccncc3)cc21 [Example 4057]

IC50 (Table 1, HCV NS5B polymerase): < 200 nM
Structure (SMILES): CN(C)C(=O)CN1CCN(C(=O)Cn2c(-c3ccoc3)c(C3CCCCC3)c3ccc(C(=O)O)cc32)CC1 [Example 1130]

IC50 (Table 1, HCV NS5B polymerase): 200 to 1000 nM
Structure (SMILES): CC(C)N(C(=O)Cn1c(-c2ccoc2)c(C2CCCCC2)c2ccc(C(=O)O)cc21)C1CCCCC1 [Example 1091]

IC50 (Table 4, class ranges): 200 to 1000 nM
Structure (SMILES): COc1ccc(CNC(=O)c2ccc3c(C4CCCCC4)c(-c4ccccn4)n(CC(=O)N4CCN(C)CC4)c3c2)cc1OC [Example 4002]

IC50 (Table 2, HCV NS5B polymerase): < 200 nM
Structure (SMILES): Cc1c(S(=O)(=O)NC(=O)c2ccc3c(C4CCCCC4)c(-c4ccoc4)n(CC(=O)N4CCOCC4)c3c2)sc2ccc(F)cc12 [Example 2020]

IC50 (Table 1, HCV NS5B polymerase): 1000 to 10000 nM
Structure (SMILES): CN(C)C(=O)Cn1c(-c2cc3ccccc3s2)c(C2CCCCC2)c2ccc(C(=O)O)cc21 [Example 1046]

IC50 (Table 7, class ranges): 1000 to 10000 nM
Structure (SMILES): O=C(Nc1ccc(N2CCOCC2)cc1)c1ccc2c(c1)c(C1CCCCC1)c(-c1ccoc1)n2CC(=O)N1CCC(N2CCCC2)CC1 [Example 7018]

IC50 (Table 2, HCV NS5B polymerase): < 200 nM
Structure (SMILES): O=C(NS(=O)(=O)C(F)(F)F)c1ccc2c(C3CCCCC3)c(-c3ccoc3)n(CC(=O)N3CCOCC3)c2c1 [Example 2005]

IC50 (Table 4, class ranges): < 200 nM
Structure (SMILES): CN(C)C(=O)C1(NC(=O)c2ccc3c(C4CCCCC4)c(-c4ccoc4)n(CC(=O)N4CCOCC4)c3c2)CCC1 [Example 4093]

IC50 (Table 1, HCV NS5B polymerase): < 200 nM
Structure (SMILES): O=C(O)c1ccc2c(C3CCCCC3)c(-c3ccccc3)n(CC(=O)N3CCC(N4CCCC4)CC3)c2c1 [Example 1024]

IC50 (Table 2, HCV NS5B polymerase): < 200 nM
Structure (SMILES): O=C(NS(=O)(=O)c1cc(Cl)sc1Cl)c1ccc2c(C3CCCCC3)c(-c3ccoc3)n(CC(=O)N3CCOCC3)c2c1 [Example 2030]

IC50 (Table 1, HCV NS5B polymerase): < 200 nM
Structure (SMILES): O=C(O)c1ccc2c(C3CCCCC3)c(-c3cccs3)n(CC(=O)N3CCOCC3)c2c1 [Example 1033]

IC50 (Table 1, HCV NS5B polymerase): 200 to 1000 nM
Structure (SMILES): CN(C)C(=O)Cn1c(-c2cccn2C)c(C2CCCCC2)c2ccc(C(=O)O)cc21 [Example 1039]

IC50 (Table 2, HCV NS5B polymerase): < 200 nM
Structure (SMILES): O=C(NS(=O)(=O)c1cccc2nsnc12)c1ccc2c(C3CCCCC3)c(-c3ccoc3)n(CC(=O)N3CCOCC3)c2c1 [Example 2035]

IC50 (Table 4, class ranges): 200 to 1000 nM
Structure (SMILES): COC(=O)C(C)(C)NC(=O)c1ccc2c(C3CCCCC3)c(-c3ccoc3)n(CC(=O)N3CCOCC3)c2c1 [Example 4075]

IC50 (Table 1, HCV NS5B polymerase): < 200 nM
Structure (SMILES): O=C(O)c1ccc2c(C3CCCCC3)c(-c3ccoc3)n(CC(=O)N3CCC(C(=O)O)CC3)c2c1 [Example 1058]

IC50 (Table 7, class ranges): 1000 to 10000 nM
Structure (SMILES): O=C(NCCSCc1c(F)cccc1Cl)c1ccc2c(c1)c(C1CCCCC1)c(-c1ccoc1)n2CC(=O)N1CCC(N2CCCC2)CC1 [Example 7038]

IC50 (Table 2, HCV NS5B polymerase): < 200 nM
Structure (SMILES): O=C(NS(=O)(=O)Cc1ccccc1)c1ccc2c(C3CCCCC3)c(-c3ccoc3)n(CC(=O)N3CCOCC3)c2c1 [Example 2003]

IC50 (Table 2, HCV NS5B polymerase): < 200 nM
Structure (SMILES): Cc1ccccc1S(=O)(=O)NC(=O)c1ccc2c(C3CCCCC3)c(-c3ccoc3)n(CC(=O)N3CCOCC3)c2c1 [Example 2016]

IC50 (Table 4, class ranges): 200 to 1000 nM
Structure (SMILES): CN(C)C(=O)Cn1c(-c2ccoc2)c(C2CCCCC2)c2ccc(C(=O)NCCc3ccccc3)cc21 [Example 4055]

IC50 (Table 7, class ranges): 1000 to 10000 nM
Structure (SMILES): NC(=O)c1ccc2c(c1)c(C1CCCCC1)c(-c1ccoc1)n2CC(=O)N1CCC(N2CCCC2)CC1 [Example 7058]

IC50 (Table 2, HCV NS5B polymerase): < 200 nM
Structure (SMILES): CS(=O)(=O)NC(=O)c1ccc2c(C3CCCCC3)c(-c3ccoc3)n(CC(=O)N3CCOCC3)c2c1 [Example 2002]

IC50 (Table 4, class ranges): < 200 nM
Structure (SMILES): CN1CCN(C(=O)Cn2c(-c3ccoc3)c(C3CCCCC3)c3ccc(C(=O)NCc4ccc(S(N)(=O)=O)cc4)cc32)CC1 [Example 4032]

IC50 (Table 7, class ranges): 1000 to 10000 nM
Structure (SMILES): Cc1oc(-c2ccc(NC(=O)c3ccc4c(c3)c(C3CCCCC3)c(-c3ccoc3)n4CC(=O)N3CCC(N4CCCC4)CC3)cc2)cc1C(=O)O [Example 7048]

IC50 (Table 1, HCV NS5B polymerase): 200 to 1000 nM
Structure (SMILES): O=C(Cn1c(-c2ccoc2)c(C2CCCCC2)c2ccc(C(=O)O)cc21)NCCCN1CCOCC1 [Example 1009]

IC50 (Table 7, class ranges): 1000 to 10000 nM
Structure (SMILES): CC(C)(C)NC(=O)[C@@H]1Cc2ccccc2CN1C(=O)c1ccc2c(c1)c(C1CCCCC1)c(-c1ccoc1)n2CC(=O)N1CCC(N2CCCC2)CC1 [Example 7061]
